Target: T1, Human Cav2.2 channels (Homo sapiens, UniProt Q00975)
T1 construct: expressed in transfected cells
Test: Fluorescent assay for Cav2.2 channels using potassium depolarization to initiate channel opening
Format: cell-based
Settings: assay of Example 1 in the presence of 30 mM potassium (inactivated channel state)
Excerpt: Human Cav2.2 channels were stably expressed in HEK293 cells along with alpha2-delta and beta subunits of voltage-gated calcium channels. An inwardly rectifying potassium channel (Kir2.3) was also expressed in these cells to allow more precise control of the cell membrane potential by extracellular potassium concentration. At low bath potassium concentration, the membrane potential is relatively negative, and is depolarized as the bath potassium concentration is raised. In this way, the bath potassium concentration can be used to regulate the voltage-dependent conformations of the channels. Compounds are incubated with cells in the presence of low (4 mM) potassium or elevated (12, 25 or 30 mM) potassium to determine the affinity for compound block of resting (closed) channels at 4 mM potassium or affinity for block of open and inactivated channels at 12, 25 or 30 mM potassium. After the incubation period, Cav2.2 channel opening is triggered by addition of higher concentration of potassium (70 mM final concentration) to further depolarize the cell. The degree of state-dependent block can be estimated from the inhibitory potency of compounds after incubation in different potassium concentrations.
Calcium influx through Cav2.2 channels is determined using a calcium-sensitive fluorescent dye in combination with a fluorescent plate reader. Fluorescent changes were measured with either a VIPR (Aurora Instruments) or FLIPR (Molecular Devices) plate reader.
• 1. Seed cells in Poly-D-Lysine Coated 96- or 384-well plate and keep in a 37° C.-10% CO2 incubator overnight • 2. Remove media, wash cells with 0.2 mL (96-well plate) or 0.05 mL (384-well plate) Dulbecco's Phosphate Buffered Saline (D-PBS) with calcium & magnesium (Invitrogen; 14040) • 3. […] Read cell plate on VIPR instrument, Excitation=480 nm, Emission=535 nm • 9. With VIPR continuously reading, add 0.1 mL (96-well plate) or 0.03 mL (384-well plate) of Depolarization Buffer, which is 2× the final assay concentration, to the cell plate.

T1 sequence (Q00975 whole entry): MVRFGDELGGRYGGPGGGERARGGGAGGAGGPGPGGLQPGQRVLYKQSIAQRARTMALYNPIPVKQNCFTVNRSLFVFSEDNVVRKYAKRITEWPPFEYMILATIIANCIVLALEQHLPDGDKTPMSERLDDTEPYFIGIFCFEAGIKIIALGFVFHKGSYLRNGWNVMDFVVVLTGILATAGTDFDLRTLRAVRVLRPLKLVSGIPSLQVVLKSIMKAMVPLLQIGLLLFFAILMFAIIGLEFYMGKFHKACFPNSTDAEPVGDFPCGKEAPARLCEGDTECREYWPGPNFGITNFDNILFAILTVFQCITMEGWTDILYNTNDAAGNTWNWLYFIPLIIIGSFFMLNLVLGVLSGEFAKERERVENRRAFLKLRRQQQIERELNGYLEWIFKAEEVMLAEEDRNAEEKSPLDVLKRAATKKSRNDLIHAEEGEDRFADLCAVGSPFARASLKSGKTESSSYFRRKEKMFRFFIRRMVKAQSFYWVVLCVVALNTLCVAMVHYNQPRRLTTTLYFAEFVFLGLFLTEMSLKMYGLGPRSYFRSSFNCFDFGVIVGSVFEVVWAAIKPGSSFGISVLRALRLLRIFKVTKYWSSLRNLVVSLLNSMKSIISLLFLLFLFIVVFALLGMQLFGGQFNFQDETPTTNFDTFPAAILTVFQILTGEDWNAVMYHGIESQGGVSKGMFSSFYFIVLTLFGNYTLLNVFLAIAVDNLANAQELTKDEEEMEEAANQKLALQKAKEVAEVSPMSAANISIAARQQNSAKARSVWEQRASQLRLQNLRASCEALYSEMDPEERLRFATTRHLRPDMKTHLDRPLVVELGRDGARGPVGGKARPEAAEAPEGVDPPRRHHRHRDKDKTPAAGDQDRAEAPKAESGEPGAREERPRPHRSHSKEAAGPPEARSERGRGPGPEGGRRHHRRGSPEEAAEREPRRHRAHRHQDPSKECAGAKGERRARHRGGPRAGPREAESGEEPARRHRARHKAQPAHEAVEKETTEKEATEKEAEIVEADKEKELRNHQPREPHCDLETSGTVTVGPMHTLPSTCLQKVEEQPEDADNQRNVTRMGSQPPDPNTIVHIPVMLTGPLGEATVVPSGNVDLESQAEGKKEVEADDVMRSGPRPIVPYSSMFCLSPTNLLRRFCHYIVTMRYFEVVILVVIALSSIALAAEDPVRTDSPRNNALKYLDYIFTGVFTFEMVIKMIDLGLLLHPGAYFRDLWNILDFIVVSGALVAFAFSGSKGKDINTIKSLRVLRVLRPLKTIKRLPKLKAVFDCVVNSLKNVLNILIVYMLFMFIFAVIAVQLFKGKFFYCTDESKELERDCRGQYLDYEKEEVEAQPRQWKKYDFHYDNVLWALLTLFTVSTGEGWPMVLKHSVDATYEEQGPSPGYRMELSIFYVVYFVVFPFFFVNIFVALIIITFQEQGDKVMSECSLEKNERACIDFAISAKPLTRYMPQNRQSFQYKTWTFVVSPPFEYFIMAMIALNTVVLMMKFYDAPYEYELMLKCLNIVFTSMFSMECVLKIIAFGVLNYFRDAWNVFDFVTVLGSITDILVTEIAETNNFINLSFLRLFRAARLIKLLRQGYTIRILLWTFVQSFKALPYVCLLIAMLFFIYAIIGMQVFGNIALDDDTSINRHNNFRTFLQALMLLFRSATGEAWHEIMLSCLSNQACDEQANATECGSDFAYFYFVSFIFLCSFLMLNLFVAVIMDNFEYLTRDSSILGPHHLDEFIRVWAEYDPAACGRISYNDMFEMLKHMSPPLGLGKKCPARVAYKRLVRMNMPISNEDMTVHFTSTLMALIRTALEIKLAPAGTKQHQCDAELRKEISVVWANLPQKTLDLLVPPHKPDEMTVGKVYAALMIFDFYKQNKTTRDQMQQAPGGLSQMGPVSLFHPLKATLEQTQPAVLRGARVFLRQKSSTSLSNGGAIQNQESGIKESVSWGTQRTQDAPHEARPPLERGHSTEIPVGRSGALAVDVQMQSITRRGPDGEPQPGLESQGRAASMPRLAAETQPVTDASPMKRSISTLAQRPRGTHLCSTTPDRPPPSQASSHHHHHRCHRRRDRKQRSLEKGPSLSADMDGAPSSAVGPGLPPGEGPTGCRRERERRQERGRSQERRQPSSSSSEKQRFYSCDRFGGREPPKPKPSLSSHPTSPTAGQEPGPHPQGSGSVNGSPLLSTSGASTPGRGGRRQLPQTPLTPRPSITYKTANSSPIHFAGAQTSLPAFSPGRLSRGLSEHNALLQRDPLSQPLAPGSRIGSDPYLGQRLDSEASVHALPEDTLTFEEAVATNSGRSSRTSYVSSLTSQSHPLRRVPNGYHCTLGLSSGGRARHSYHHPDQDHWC

| SMILES | IC50 |
| --- | --- |
| CC1(Cc2cc(F)cc(F)c2F)C(=O)NC(=O)c2ccc(-c3cccc(OCC(F)(F)F)c3)cc21 (stereo not drawn) [Example 2, 4-methyl-4-(2,3,5-trifluorobenzyl)-6-[3-(2,2,2-trifluoroethoxy)phenyl]isoquinoline-1,3(2H,4H)-dione] | 260 nM |
| CC1(Cc2cc(F)cc(F)c2F)C(=O)NCc2ccc(-c3cccc(OCC(F)(F)F)c3)cc21 (stereo not drawn) [Example 1, 4-methyl-4-(2,3,5-trifluorobenzyl)-6-[3-(2,2,2-trifiuoroethoxy)phenyl]-1,4-dihydroisoquinolin-3(2H)-one] | 230 nM |
| Cn1cnc(N2Cc3ccc(-c4cccc(OCC(F)(F)F)c4)cc3C(C)(Cc3cc(F)cc(F)c3F)C2=O)c1 (stereo not drawn) [Example 3, 4-methyl-2-(1-methyl-1H-imidazol-4-yl)-4-(2,3,5-trifluorobenzyl)-6-[3-(2,2,2-trifiuoroethoxy)phenyl]-1,4-dihydroisoquinolin-3(2H)-one] | 20 nM |

Source: patent US20110136842A1, “Substituted Dihydroisoquinolinone and Isoquinolinedione Derivatives as Calcium Channel Blockers” (priority 2008, published 2011)
